{"source": "patent US20210115145A1", "about": "“COMBINATION THERAPY WITH TARGETED TGF-B INHIBITION FOR TREATMENT OF ADVANCED NON-SMALL CELL LUNG CANCER” (Merck Patent GmbH, priority 2018, published 2021)", "molecules": {"B1": {"name": "recombinant soluble TGFβRII: recombinant soluble extracellular domain of TGFβRII (protein, UniProt P37173 23-166, looked up)", "extracellular domain": "TIPPHVQKSVNNDMIVTDNNGAVKFPQLCKFCDVRFSTCDNQKSCMSNCSITSICEKPQEVCVAVWRKNDENITLETVCHDPKLPYHDFILEDAASPKCIMKEKKKPGETFFMCSCSSDECNDNIIFSEEYNTSNPDLLLVIFQ", "modifications": "extracellular domain"}, "B2": {"name": "Lerdelimumab: an antibody specific for TGFβ2 (antibody, chains of the INN, looked up, V domains shown)", "VH": "EVQLVESGGGVVQPGRSLRLSCAASGFTFSSYGMHWVRQAPGKGLEWVAVIWYDGSNKYYADSVKGRFTISRDNSKNTLYLQMDSLRAEDTAVYYCGRTLESSLWGQGTLVTVSS", "VL": "SSELTQDPAVSVALGQTVRITCQGDSLRSYYASWYQQKPGQAPVLVIYGKNNRPSGIPDRFSGSSSGNTASLTITGAQAEDEADYYCNSRDSSSTHRGVFGGGTKLTVL"}}, "key": {"[1]": {"tested_on": "advanced malignant melanoma or renal cell carcinoma", "conditions": "cited from earlier work"}, "EMT-6 xenografts": {"tested_on": "EMT-6 xenografts", "assay": "Mouse PK/Efficacy model from EMT-6 xenograft efficacy results", "type": "in vivo", "method": "Experiments were also conducted to determine the efficacy of the anti-PD-L1/TGFβ Trap molecule in a tumor model. Efficacy results from EMT-6 xenografts were used to establish the PK/Efficacy model.\nThe model predictions are able to capture the tumor volume distributions. Conditional weighted residuals are normally distributed with a 0 mean and 1 variance without a trend. The PK/Efficacy model was then used to simulate tumor growth inhibition (TGI) using the human predicted concentration-time profiles at different doses."}, "advanced NSCLC": {"tested_on": "advanced NSCLC", "assay": "Clinical study in 2L NSCLC, q2w dosing: response per RECIST v1.1", "type": "in vivo, human"}, "PD-L1 and TGFβ": {"tested_on": "PD-L1 and TGFβ", "assay": "Two-step ELISA, simultaneous binding"}, "[2]": {"tested_on": "PD-L1 and TGFβ dependent signaling", "assay": "Inhibition of PD-L1 and TGFβ dependent signaling in vitro", "type": "cell-based"}, "mouse tumor models": {"tested_on": "mouse tumor models", "assay": "Antitumor activity in mouse tumor models", "type": "in vivo"}, "melanoma": {"tested_on": "melanoma", "conditions": "Phase I; cited from earlier work"}, "TGFβ1": {"molecular_target": "TGFβ1 (Homo sapiens, UniProt P01137)", "sequence (P01137 279-390 limits assumed, species assumed)": "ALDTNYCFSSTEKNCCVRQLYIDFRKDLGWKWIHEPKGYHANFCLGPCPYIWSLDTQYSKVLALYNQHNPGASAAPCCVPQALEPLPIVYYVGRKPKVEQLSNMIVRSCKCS", "conditions": "binding of TGFβ1; cited from earlier work"}, "[3]": {"tested_on": "scarring after eye surgery", "conditions": "Phase 3; cited from earlier work"}, "[4]": {"conditions": "PK/Efficacy model parameter estimate, EMT-6 xenograft mice"}, "[5]": {"conditions": "PD-L1 high (≥80%) pts, 500 mg q2w"}, "[6]": {"conditions": "PD-L1 high (≥80%) pts, 1200 mg q2w"}}, "data": [{"molecule": "GC1008: a human antibody specific for all isoforms of TGFβ", "values": [{"measurement": "clinical efficacy", "setting": "[1]; Phase I/II, patients", "result": "only limited clinical efficacy"}, {"measurement": "safety", "setting": "[1]; in vivo", "result": "safe and well tolerated"}]}, {"molecule": "anti-PD-L1/TGFβ Trap: bi-functional fusion protein: anti-PD-L1 antibody heavy chains fused via glycine-serine linker to extracellular domain of human TGFβRII; SEQ ID NO: 3 and 1", "values": [{"measurement": "KC50", "setting": "EMT-6 xenografts; [4]", "result": 55324.6, "unit": "ng/mL"}, {"measurement": "Kmax", "setting": "EMT-6 xenografts; [4]", "result": 2}, {"measurement": "KC50 (average plasma concentration for 50% of the maximal anti-tumor activity)", "setting": "EMT-6 xenografts; estimated, EMT-6 xenografts", "result": 55.3, "unit": "µg/mL"}, {"measurement": "ORR, %", "setting": "advanced NSCLC; All patients, 500 mg q2w", "result": 20.0, "unit": "%"}, {"measurement": "ORR, n (responders/patients)", "setting": "advanced NSCLC; All patients, 500 mg q2w", "result": "8/40"}, {"measurement": "ORR, %", "setting": "advanced NSCLC; All patients, 1200 mg q2w", "result": 27.5, "unit": "%"}, {"measurement": "ORR, n (responders/patients)", "setting": "advanced NSCLC; All patients, 1200 mg q2w", "result": "11/40"}, {"measurement": "ORR, n (responders/patients)", "setting": "advanced NSCLC; All patients, Total", "result": "19/80"}, {"measurement": "ORR, %", "setting": "advanced NSCLC; All patients, Total (both doses)", "result": 23.8, "unit": "%"}, {"measurement": "ORR, %", "setting": "advanced NSCLC; PD-L1+ (≥1%) pts, 500 mg q2w", "result": 19.4, "unit": "%"}, {"measurement": "ORR, n (responders/patients)", "setting": "advanced NSCLC; PD-L1+ (≥1%) pts, 500 mg q2w", "result": "6/31"}, {"measurement": "ORR, %", "setting": "advanced NSCLC; PD-L1+ (≥1%) pts, 1200 mg q2w", "result": 40.7, "unit": "%"}, {"measurement": "ORR, n (responders/patients)", "setting": "advanced NSCLC; PD-L1+ (≥1%) pts, 1200 mg q2w", "result": "11/27"}, {"measurement": "ORR, %", "setting": "advanced NSCLC; PD-L1+ (≥1%) pts, Total", "result": 29.3, "unit": "%"}, {"measurement": "ORR, n (responders/patients)", "setting": "advanced NSCLC; PD-L1+ (≥1%) pts, Total", "result": "17/58"}, {"measurement": "ORR, %", "setting": "advanced NSCLC; [5]", "result": 33.3, "unit": "%"}, {"measurement": "ORR, n (responders/patients)", "setting": "advanced NSCLC; [5]", "result": "2/6"}, {"measurement": "ORR, %", "setting": "advanced NSCLC; [6]", "result": 85.7, "unit": "%"}, {"measurement": "ORR, n (responders/patients)", "setting": "advanced NSCLC; [6]", "result": "6/7"}, {"measurement": "ORR, %", "setting": "advanced NSCLC; PD-L1 high (≥80%) pts, Total", "result": 62.0, "unit": "%"}, {"measurement": "ORR, n (responders/patients)", "setting": "advanced NSCLC; PD-L1 high (≥80%) pts, Total", "result": "8/13"}, {"measurement": "partial responses (PR)", "setting": "advanced NSCLC; across both dose levels (500 mg and 1200 mg q2w), 80 patients", "result": 18}, {"measurement": "complete response (CR)", "setting": "advanced NSCLC; at 1200 mg q2w", "result": 1}, {"measurement": "simultaneous binding to PD-L1 and TGFβ", "setting": "PD-L1 and TGFβ; FIG. 2", "result": "simultaneously binds to both PD-L1 and TGFβ"}, {"measurement": "simultaneous binding to PD-L1 and TGFβ", "setting": "PD-L1 and TGFβ; FIG. 2, listed as protein of the present disclosure", "result": "simultaneously bound to both PD-L1 and TGFβ"}, {"measurement": "PD-L1 and TGFβ dependent signaling", "setting": "[2]", "result": "inhibited"}, {"measurement": "antitumor activity and survival versus anti PD-L1 antibody avelumab or TGFβ Trap control alone", "setting": "mouse tumor models; mouse tumor models, preclinical data", "result": "strongly enhances antitumor activity and prolongs survival"}, {"measurement": "antitumor activity", "setting": "mouse tumor models; variety of mouse models", "result": "potent antitumor activity"}]}, {"molecule": "fresolimumab: monoclonal antibody targeting TGFβ1, 2 and 3", "values": [{"measurement": "tumor response", "setting": "melanoma", "result": "initial evidence of tumor response"}]}, {"molecule": "B1", "values": [{"measurement": "Kd", "setting": "TGFβ1", "result": 0.2, "unit": "nM"}]}, {"molecule": "B2", "values": [{"measurement": "safety and efficacy at improving scarring", "setting": "[3]", "result": "safe but ineffective"}]}]}
